Values of other authors as cited in US20050148519A1, “Salts of pharmacologically active compounds” (priority 2003, published 2005).

Assays:
[1] = for Injection site reaction: intramuscular or subcutaneous for flunixin, route not given for the others
[2] = dog, oral 2.2, 6.6 and 11.0 mg/kg

## CN(C)[C@@H]1C(O)=C(C(N)=O)C(=O)[C@@]2(O)C(O)=C3C(=O)c4c(O)cccc4[C@@](C)(O)[C@H]3[C@H](O)[C@@H]12 [Oxytetracyclines, oxytetracycline]
[1]
  Injection site reaction: severe injection site inflammations and even necrosis

## Cc1c(Nc2ncccc2C(=O)O)cccc1C(F)(F)F [flunixin]
Injection in a conventional format
  Time flunixin is present in tissues at a pharmaceutically effective amount: 6 to 12 h
Single dose 1.1 mg/kg
  Flunixin serum concentration immediately following administration: 8 to 13 µg/mL
  Flunixin serum concentration within 4 hours of administration: sub micro gram/mL
  Time post administration to undetectable flunixin serum levels: 6 to 12 h
[2]
  Side effects following oral dosing: vomiting, diarrhea, blood in stools, and gastro-intestinal ulceration were common
[1]
  Injection site reaction: can cause tissue damage

## CC[C@H]1OC(=O)C[C@@H](O)[C@H](C)[C@@H](O[C@@H]2O[C@H](C)[C@@H](O)[C@H](N(C)C)[C@H]2O)[C@@H](CCN2C[C@H](C)C[C@H](C)C2)C[C@@H](C)C(=O)/C=C/C(C)=C/[C@@H]1CO[C@@H]1O[C@H](C)[C@@H](O)[C@@H](OC)[C@H]1OC [tilmicosin]
[1]; in vivo
  Time for injection site reactions to dissipate: two to three days
[1]
  Injection site reaction: mild injection site reactions
